In patent US6455700B1, “Process for preparing guanidine and amidine derivatives” (Boehringer Ingelheim Pharma KG., priority 1998, dated 2002):
Structures can show the parent of a compound that is named as a salt.

Assays:
[1] = molecular target: T1, NK1 receptor (substance P receptor) (Homo sapiens, UniProt P25103); assay: NK1 receptor affinity, displacement of 125I-labelled substance P on IM-9 cells; format: binding; settings: human lymphoblastoma cells (IM-9) with cloned NK1 receptors
T1 construct: expressed in transfected cells; host or cells: human lymphoblastoma cells (IM-9)
Procedure: Results of investigations into the compound according to the invention: The receptor affinity for the NK1 receptor (substance P receptor) is determined on human lymphoblastoma cells (IM-9) with cloned NK1 receptors, by measuring the displacement of ^125I-labelled substance P. The Ki values thus obtained show the efficacy of the compounds.

T1 sequence (P25103 whole entry): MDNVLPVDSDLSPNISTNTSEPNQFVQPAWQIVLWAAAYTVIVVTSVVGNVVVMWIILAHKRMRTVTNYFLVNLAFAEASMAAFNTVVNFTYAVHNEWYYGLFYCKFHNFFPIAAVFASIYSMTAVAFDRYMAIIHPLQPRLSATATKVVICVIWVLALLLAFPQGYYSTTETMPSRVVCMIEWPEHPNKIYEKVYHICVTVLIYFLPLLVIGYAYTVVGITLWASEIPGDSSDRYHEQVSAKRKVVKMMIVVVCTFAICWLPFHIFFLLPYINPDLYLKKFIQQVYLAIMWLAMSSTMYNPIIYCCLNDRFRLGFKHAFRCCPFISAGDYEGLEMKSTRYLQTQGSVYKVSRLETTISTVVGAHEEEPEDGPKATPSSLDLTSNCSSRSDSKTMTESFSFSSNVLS

| SMILES | Ki [1] | melting point |
| --- | --- | --- |
| CN(CCc1cc(C(F)(F)F)cc(C(F)(F)F)c1)C(=O)C(c1ccccc1)N1CCN(/C(N)=N/Cc2ccccc2)CC1 (centres unmarked) [Example 34] | 0.37 nM |  |
| CN(CC(c1ccc(Cl)c(Cl)c1)N1CCN(C(=N)N)CC1)C(=O)Cc1cc(C(F)(F)F)cc(C(F)(F)F)c1 (centres unmarked) [Example 35] | 0.78 nM |  |
| CC(C)/N=C(/NC(C)C)N1CCN(C(C(=O)N(C)CCc2cc(C(F)(F)F)cc(C(F)(F)F)c2)c2ccccc2)CC1 (racemic) [Example 4] | 0.53 nM | 176 to 186 °C (dec.) |
| CC(C)NC(=N)N1CCN(C(C(=O)N(C)CCc2cc(C(F)(F)F)cc(C(F)(F)F)c2)c2ccccc2)CC1 (centres unmarked) [Example 32] | 0.2 nM |  |
| CN(C)C(=N)N1CCN(C(C(=O)N(C)CCc2cc(C(F)(F)F)cc(C(F)(F)F)c2)c2ccccc2)CC1 (centres unmarked) [Example 10] | 0.12 nM |  |
| CN(CCc1cc(C(F)(F)F)cc(C(F)(F)F)c1)C(=O)C(c1ccccc1)N1CCN(/C(=N\C2CCCCC2)N(C)C2CCCCC2)CC1 (centres unmarked) [Example 6] | 0.88 nM |  |
| CN(CCc1cc(C(F)(F)F)cc(C(F)(F)F)c1)C(=O)C(c1ccccc1)N1CCN(/C(=N/C(=O)c2ccccc2)NCc2ccccc2)CC1 (centres unmarked) [Example 33] | 13.2 nM |  |
| CN(CCc1cc(C(F)(F)F)cc(C(F)(F)F)c1)C(=O)C(c1ccccc1)N1CCN(C(=N)N)CC1 (racemic) (as salt: hydrochloride) [Example 1, (R,S)-1-Amidino-4-[2-phenylacetic acid-N-methyl-N-(3,5-bis-trifluoromethyl-phenyl-ethyl)-amide]-piperazine, dihydrochloride] |  | 128 to 138 °C |
| CCN/C(=N/C(C)(C)C)N1CCN(C(C(=O)N(C)CCc2cc(C(F)(F)F)cc(C(F)(F)F)c2)c2ccccc2)CC1 (centres unmarked) [Example 5] | 6.28 nM | 174 to 184 °C (dec.) |
| CN(CCc1cc(C(F)(F)F)cc(C(F)(F)F)c1)C(=O)C(c1ccccc1)N1CCN(C2=NCCN2)CC1 (centres unmarked) [Example 2] | 0.3 nM | 163 to 173 °C |
| CN(CCc1cc(C(F)(F)F)cc(C(F)(F)F)c1)C(=O)[C@H](c1ccccc1)N1CCN(/C(=N/C(=O)c2ccccc2)N(C)C)CC1.Cl [Example 27] | 1.11 nM | 124 to 128 °C |
| CC(C)N/C(=N\C(=O)c1ccccc1)N1CCN(C(C(=O)N(C)CCc2cc(C(F)(F)F)cc(C(F)(F)F)c2)c2ccccc2)CC1 (centres unmarked) [Example 31] | 8.96 nM |  |
| CNC(=N)N1CCN(C(C(=O)N(C)CCc2cc(C(F)(F)F)cc(C(F)(F)F)c2)c2ccccc2)CC1 (centres unmarked) [Example 3] | 0.2 nM | 69 to 79 °C |

Other lines, results leading:

| Ki [1] | melting point | SMILES |
| --- | --- | --- |
| 0.17 nM |  | CN(CCc1cc(C(F)(F)F)cc(C(F)(F)F)c1)C(=O)C(c1ccccc1)N1CCN(C(=N)N2CCOCC2)CC1 (centres unmarked) [Example 30] |
| 0.14 nM | 126 to 140 °C | C/N=C(\NC)N1CCN(C(C(=O)N(C)CCc2cc(C(F)(F)F)cc(C(F)(F)F)c2)c2ccccc2)CC1 (centres unmarked) [Example 9] |
| 0.45 nM |  | CN(CCc1cc(C(F)(F)F)cc(C(F)(F)F)c1)C(=O)C(c1ccccc1)N1CCN(C(=N)N)CC1 (racemic) [Example 1, (R,S)-1-Amidino-4-[2-phenylacetic acid-N-methyl-N-(3,5-bis-trifluoromethyl-phenyl-ethyl)-amide]-piperazine, dihydrochloride] |
| 0.19 nM |  | CN(CCc1cc(C(F)(F)F)cc(C(F)(F)F)c1)C(=O)[C@H](c1ccccc1)N1CCN(C2=NCCN2C)CC1 [Example 8] |
| 0.87 nM |  | CN(CCc1cc(C(F)(F)F)cc(C(F)(F)F)c1)C(=O)[C@H](c1ccccc1)N1CCN(/C(=N/C(=O)c2ccccc2)Nc2ccccc2)CC1 [Example 29] |
| 4.16 nM |  | Cc1ccc(/N=C(\Nc2ccc(C)cc2)N2CCN(C(C(=O)N(C)CCc3cc(C(F)(F)F)cc(C(F)(F)F)c3)c3ccccc3)CC2)cc1 (centres unmarked) [Example 28] |
| 1.45 nM | 182 to 188 °C (dec.) | CN(CCc1cc(C(F)(F)F)cc(C(F)(F)F)c1)C(=O)C(c1ccccc1)N1CCN(/C(=N\C2CCCCC2)NC2CCCCC2)CC1 (centres unmarked) [Example 7] |
| 0.32 nM | 240 to 245 °C (dec.) | CN(CCc1cc(C(F)(F)F)cc(C(F)(F)F)c1)C(=O)C(c1ccccc1)N1CCN(C(=N)Nc2ccccc2)CC1 (centres unmarked) [Example 12] |
